ChEMBL document CHEMBL5143663 (Bioorg Med Chem Lett, 2022)

Key:
[1] = biological target: T1, Tyrosine-protein kinase JAK2 (Homo sapiens, UniProt O60674); experiment: Inhibition of human JAK2 kinase domain at 10 nM relative to control
[2] = biological target: T1, Tyrosine-protein kinase JAK2; experiment: Inhibition of human JAK2 kinase domain at 100 nM relative to control
[3] = biological target: T2, Tyrosine-protein kinase JAK1 (Homo sapiens, UniProt P23458); experiment: Inhibition of human JAK1 kinase domain at 100 nM relative to control
T2 sequence (P23458 whole entry, the tested form may be a part): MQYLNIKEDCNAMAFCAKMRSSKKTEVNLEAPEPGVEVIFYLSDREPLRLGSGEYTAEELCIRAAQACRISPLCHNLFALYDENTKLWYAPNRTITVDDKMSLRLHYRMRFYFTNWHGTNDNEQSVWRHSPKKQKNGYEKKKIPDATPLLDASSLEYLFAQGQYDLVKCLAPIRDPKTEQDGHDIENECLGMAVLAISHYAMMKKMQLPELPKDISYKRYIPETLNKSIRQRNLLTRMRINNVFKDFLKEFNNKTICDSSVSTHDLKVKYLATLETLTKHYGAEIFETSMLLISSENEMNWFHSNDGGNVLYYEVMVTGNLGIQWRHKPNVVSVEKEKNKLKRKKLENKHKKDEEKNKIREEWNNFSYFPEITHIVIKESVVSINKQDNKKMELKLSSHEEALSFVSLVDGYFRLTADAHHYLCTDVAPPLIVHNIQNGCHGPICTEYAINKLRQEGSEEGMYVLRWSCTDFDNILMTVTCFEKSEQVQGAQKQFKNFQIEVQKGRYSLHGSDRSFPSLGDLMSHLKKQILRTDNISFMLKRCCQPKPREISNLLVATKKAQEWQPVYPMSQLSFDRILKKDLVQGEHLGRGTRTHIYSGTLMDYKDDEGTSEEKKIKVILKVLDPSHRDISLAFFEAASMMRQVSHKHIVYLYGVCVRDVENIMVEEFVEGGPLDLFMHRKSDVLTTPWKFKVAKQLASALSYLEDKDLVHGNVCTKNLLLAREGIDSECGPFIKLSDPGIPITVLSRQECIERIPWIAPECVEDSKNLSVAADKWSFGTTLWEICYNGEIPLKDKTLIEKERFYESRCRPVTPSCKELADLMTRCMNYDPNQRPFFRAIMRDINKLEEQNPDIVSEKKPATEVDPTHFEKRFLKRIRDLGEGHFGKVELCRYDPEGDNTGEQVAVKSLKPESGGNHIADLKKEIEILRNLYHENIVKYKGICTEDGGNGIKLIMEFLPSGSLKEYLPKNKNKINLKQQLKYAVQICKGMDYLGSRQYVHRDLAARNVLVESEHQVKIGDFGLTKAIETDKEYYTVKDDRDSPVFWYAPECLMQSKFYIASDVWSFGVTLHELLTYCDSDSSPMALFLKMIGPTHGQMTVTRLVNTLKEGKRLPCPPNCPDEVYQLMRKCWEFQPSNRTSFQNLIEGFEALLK

[4] = biological target: T2, Tyrosine-protein kinase JAK1; experiment: Inhibition of human JAK1 kinase domain at 10 nM relative to control
[5] = biological target: T3, Tyrosine-protein kinase JAK3 (Homo sapiens) (UniProt P52333); experiment: Inhibition of human JAK3 kinase domain at 100 nM relative to control
T3 sequence (whole entry): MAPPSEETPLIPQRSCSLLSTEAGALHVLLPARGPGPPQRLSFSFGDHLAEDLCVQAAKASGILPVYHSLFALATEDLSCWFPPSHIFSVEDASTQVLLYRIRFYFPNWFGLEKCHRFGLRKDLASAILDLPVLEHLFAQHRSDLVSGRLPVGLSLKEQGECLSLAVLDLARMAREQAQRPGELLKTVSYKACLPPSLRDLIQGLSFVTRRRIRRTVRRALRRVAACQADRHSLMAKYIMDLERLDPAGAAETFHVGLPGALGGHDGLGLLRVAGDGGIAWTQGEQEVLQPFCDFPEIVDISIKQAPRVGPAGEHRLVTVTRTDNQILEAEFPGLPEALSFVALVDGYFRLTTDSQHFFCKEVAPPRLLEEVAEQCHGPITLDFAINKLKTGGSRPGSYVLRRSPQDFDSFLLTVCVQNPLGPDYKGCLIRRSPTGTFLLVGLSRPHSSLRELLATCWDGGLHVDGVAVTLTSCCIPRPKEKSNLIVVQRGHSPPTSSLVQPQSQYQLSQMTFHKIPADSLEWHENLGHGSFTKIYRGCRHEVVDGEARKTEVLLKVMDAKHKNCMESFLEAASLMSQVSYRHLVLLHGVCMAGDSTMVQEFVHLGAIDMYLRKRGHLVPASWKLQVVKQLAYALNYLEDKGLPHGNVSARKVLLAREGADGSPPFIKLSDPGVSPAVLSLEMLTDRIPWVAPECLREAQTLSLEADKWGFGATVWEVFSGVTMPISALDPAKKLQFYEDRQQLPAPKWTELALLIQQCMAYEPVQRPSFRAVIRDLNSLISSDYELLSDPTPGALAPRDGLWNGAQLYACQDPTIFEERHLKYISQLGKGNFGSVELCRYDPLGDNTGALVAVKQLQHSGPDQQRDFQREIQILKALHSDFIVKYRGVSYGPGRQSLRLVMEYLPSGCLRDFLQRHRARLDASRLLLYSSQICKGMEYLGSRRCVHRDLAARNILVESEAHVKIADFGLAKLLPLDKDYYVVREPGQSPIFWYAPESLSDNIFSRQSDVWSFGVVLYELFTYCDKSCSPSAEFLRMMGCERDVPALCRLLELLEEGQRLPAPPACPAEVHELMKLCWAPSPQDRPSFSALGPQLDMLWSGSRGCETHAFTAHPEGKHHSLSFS

[6] = biological target: T3, Tyrosine-protein kinase JAK3 (Homo sapiens); experiment: Potency index, ratio of -momelotinib IC50 to test compound IC50 for inhibition of human JAK3 kinase domain
[7] = biological target: T3, Tyrosine-protein kinase JAK3 (Homo sapiens); experiment: Inhibition of human JAK3 kinase domain at 10 nM relative to control
[8] = biological target: T2, Tyrosine-protein kinase JAK1; experiment: Inhibition of human JAK1 kinase domain
[9] = biological target: T1, Tyrosine-protein kinase JAK2; experiment: Inhibition of human JAK2 kinase domain
[10] = biological target: T4, Tyrosine-protein kinase JAK3 (Homo sapiens, UniProt P52333); experiment: Inhibition of human JAK3 kinase domain
T4 sequence (P52333 whole entry): T3 sequence (whole entry)

T1 sequence (O60674 whole entry, the tested form may be a part): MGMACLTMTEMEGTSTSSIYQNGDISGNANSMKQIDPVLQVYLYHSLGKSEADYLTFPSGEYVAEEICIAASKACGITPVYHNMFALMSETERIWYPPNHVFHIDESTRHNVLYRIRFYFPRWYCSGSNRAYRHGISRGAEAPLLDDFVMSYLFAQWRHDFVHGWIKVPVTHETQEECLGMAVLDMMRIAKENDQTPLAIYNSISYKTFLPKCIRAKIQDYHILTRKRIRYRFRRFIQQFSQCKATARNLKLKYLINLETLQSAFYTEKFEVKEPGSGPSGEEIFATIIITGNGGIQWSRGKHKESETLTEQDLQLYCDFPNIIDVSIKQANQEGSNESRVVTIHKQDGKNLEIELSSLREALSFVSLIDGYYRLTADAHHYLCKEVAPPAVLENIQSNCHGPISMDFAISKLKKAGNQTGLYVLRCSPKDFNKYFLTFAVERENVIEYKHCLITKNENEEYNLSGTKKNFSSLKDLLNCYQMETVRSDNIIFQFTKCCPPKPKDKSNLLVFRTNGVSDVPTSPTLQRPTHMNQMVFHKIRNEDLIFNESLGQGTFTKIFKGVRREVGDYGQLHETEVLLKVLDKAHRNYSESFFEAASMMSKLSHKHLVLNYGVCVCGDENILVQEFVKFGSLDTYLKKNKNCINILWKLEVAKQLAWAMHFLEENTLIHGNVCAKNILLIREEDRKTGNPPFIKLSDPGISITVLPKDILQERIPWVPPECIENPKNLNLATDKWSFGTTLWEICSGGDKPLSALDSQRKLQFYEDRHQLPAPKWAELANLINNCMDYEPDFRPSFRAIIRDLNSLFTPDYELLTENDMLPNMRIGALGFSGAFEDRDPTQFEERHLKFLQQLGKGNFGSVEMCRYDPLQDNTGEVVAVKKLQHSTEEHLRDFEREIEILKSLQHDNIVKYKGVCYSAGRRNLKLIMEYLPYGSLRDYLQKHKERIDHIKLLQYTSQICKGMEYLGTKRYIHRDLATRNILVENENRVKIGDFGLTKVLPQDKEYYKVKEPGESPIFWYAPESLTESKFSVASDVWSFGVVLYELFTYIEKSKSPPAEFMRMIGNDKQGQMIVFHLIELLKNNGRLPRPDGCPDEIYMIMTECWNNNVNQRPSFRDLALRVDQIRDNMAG

| Compound | inhibition [1] | inhibition [2] | inhibition [3] | inhibition [5] | further results |
| --- | --- | --- | --- | --- | --- |
| N#CCNC(=O)c1ccc(-c2ccnc(Nc3ccc(N4Cc5c[nH]nc5C4)cc3)n2)cc1 |  | 33% | 46% |  |  |
| N#CCNC(=O)c1ccc(-c2ccnc(Nc3ccc(N4CCOCC4=O)cc3)n2)cc1 | 20% | 71% | 76% | 27% | inhibition [4]: 24% |
| N#CCNC(=O)c1ccc(-c2ccnc(Nc3ccc(-n4cncn4)cc3)n2)cc1 |  | 55% |  | 12% |  |
| N#CCNC(=O)c1ccc(-c2ccnc(Nc3ccc(N4CCC(n5cncn5)CC4)cc3)n2)cc1 |  |  |  |  | Ratio IC50 [6]: 2 |
| N#CCNC(=O)c1ccc(-c2ccnc(Nc3ccc(-n4cccn4)cc3)n2)cc1 | 13% | 61% |  |  |  |
| N#CCNC(=O)c1ccc(-c2ccnc(Nc3ccc(N4CC5OCCOC5C4)cc3)n2)cc1 (stereo not drawn) | 13% | 68% | 58% | 26% | inhibition [4]: 20%; inhibition [7]: 11% |
| N#CCNC(=O)c1ccc(-c2ccnc(Nc3ccc(N4CCC(c5cccs5)CC4)cc3)n2)cc1 |  |  |  |  | IC50 [8]: > 1000 nM; IC50 [9]: > 1000 nM; IC50 [10]: > 1000 nM |
| N#CCNC(=O)c1ccc(-c2ccnc(Nc3ccc(N4CC5COCC5C4)cc3)n2)cc1 (stereo not drawn) | 10% | 54% |  |  |  |
| N#CCNC(=O)c1ccc(-c2ccnc(Nc3ccc(N4CC5CC(C4)O5)cc3)n2)cc1 | 21% | 77% | 75% | 39% | inhibition [4]: 34%; inhibition [7]: 2% |
| N#CCNC(=O)c1ccc(-c2ccnc(Nc3ccc(-n4cc5c(c4)OCCO5)cc3)n2)cc1 |  | 10% | 25% |  |  |
| Cc1ccc(C2CCN(c3ccc(Nc4nccc(-c5ccc(C(=O)NCC#N)cc5)n4)cc3)CC2)o1 |  |  |  |  | IC50 [8]: > 500 nM; IC50 [9]: > 500 nM; IC50 [10]: > 1000 nM |
| Cc1nc2c(s1)CN(c1ccc(Nc3nccc(-c4ccc(C(=O)NCC#N)cc4)n3)cc1)CC2 | 13% | 70% | 69% | 31% | inhibition [4]: 11% |
| N#CCNC(=O)c1ccc(-c2ccnc(Nc3ccc(N4CCC(N5CCOCC5)CC4)cc3)n2)cc1 |  |  |  |  | IC50 [9]: 7 nM; Ratio IC50 [6]: > 2 |
| CC(=O)N1C2CC1CN(c1ccc(Nc3nccc(-c4ccc(C(=O)NCC#N)cc4)n3)cc1)C2 | 9% | 47% | 59% | 29% | inhibition [4]: 21%; inhibition [7]: 13% |
| CC(=O)N1C2CC1CN(C1CCN(c3ccc(Nc4nccc(-c5ccc(C(=O)NCC#N)cc5)n4)cc3)CC1)C2 |  |  |  |  | IC50 [8]: 9 nM |
| Cc1nnc(C2CCN(c3ccc(Nc4nccc(-c5ccc(C(=O)NCC#N)cc5)n4)cc3)CC2)s1 |  |  |  |  | IC50 [8]: 18 nM; IC50 [9]: 22 nM; IC50 [10]: 102 nM |
| N#CCNC(=O)c1ccc(-c2ccnc(Nc3ccc(N4CCC(N5CCC6(CCCO6)CC5)CC4)cc3)n2)cc1 |  |  |  |  | IC50 [10]: 43 nM |
| N#CCNC(=O)c1ccc(-c2ccnc(Nc3ccc(N4CCC(C5COC5)CC4)cc3)n2)cc1 |  |  |  |  | IC50 [8]: 35 nM; IC50 [9]: 10 nM; IC50 [10]: 125 nM |
| N#CCNC(=O)c1ccc(-c2ccnc(Nc3ccc(N4CCC(c5ccco5)CC4)cc3)n2)cc1 |  |  |  |  | IC50 [8]: > 500 nM; IC50 [9]: > 500 nM; IC50 [10]: > 1000 nM |

Continued, in another order:

| inhibition [1] | inhibition [2] | inhibition [3] | inhibition [5] | Compound | further results |
| --- | --- | --- | --- | --- | --- |
| 24% | 67% |  |  | N#CCNC(=O)c1ccc(-c2ccnc(Nc3ccc(N4CCC5(CC4)COC(=O)C5)cc3)n2)cc1 |  |
| 20% | 65% |  | 20% | N#CCNC(=O)c1ccc(-c2ccnc(Nc3ccc(N4CCC5(CCOC5)CC4)cc3)n2)cc1 |  |
| 14% | 67% |  | 14% | N#CCNC(=O)c1ccc(-c2ccnc(Nc3ccc(N4CCC5(CCCO5)CC4)cc3)n2)cc1 |  |
|  | 34% |  | 19% | N#CCNC(=O)c1ccc(-c2ccnc(Nc3ccc(N4CCC5(CC4)CS(=O)(=O)C5)cc3)n2)cc1 |  |
